Measurements: patent US20220144815A1, “1,3,4-OXADIAZOLES AND THEIR DERIVATIVES AS NEW ANTIFUNGAL AGENTS” (Bayer Aktiengesellschaft, priority 2018, published 2022)

Assay: Log P by HPLC on reversed phase columns, method [a] (EEC directive 79/831 Annex V.A8)
Format: physicochemical
Conditions: not given
Protocol: Measurement of Log P values as provided herein was performed according to EEC directive 79/831 Annex V.A8 by HPLC (High Performance Liquid Chromatography) on reversed phase columns with the following methods: • ^[a] Log P value is determined by measurement of LC-UV, in an acidic range, with 0.1% formic acid in water and acetonitrile as eluent (linear gradient from 10% acetonitrile to 95% acetonitrile). • ^[b] Log P value is determined by measurement of LC-UV, in a neutral range, with 0.001 molar ammonium acetate solution in water and acetonitrile as eluent (linear gradient from 10% acetonitrile to 95% acetonitrile). • ^[c] Log P value is determined by measurement of LC-UV, in an acidic range, with 0.1% phosphoric acid and acetonitrile as eluent (linear gradient from 10% acetonitrile to 95% acetonitrile). If more than one Log P value is available within the same method, all the values are given and separated by “+”. Calibration was done with straight-chain alkan2-ones (with 3 to 16 carbon atoms) with known Log P values (measurement of Log P values using retention times with linear interpolation between successive alkanones). Lambda-max-values were determined using UV-spectra from 200 nm to 400 nm and the peak values of the chromatographic signals In table 1, the log P values were determined according to method [^a]. In table 2, the log P values were determined according to method [^a].
CC(Nc1ncc(-c2nnc(C(F)F)o2)cn1)c1ccc(Cl)nc1 (racemic) [I.214, N-[(1RS)-1-(6-chloropyridin-3-yl)ethyl]-5-[5-(difluoromethyl)-1,3,4-oxadiazol-2-yl]pyrimidin-2-amine] gave a chromatographic logP of 2.27.

Same assay, conditions: log P determined according to method [a] (HPLC on reversed phase columns)
Compound O=C(O)c1ccc(-c2nnc(C(F)F)o2)cc1 [Example I-001] has a logP of 1.66. Compound CSc1ccc(-c2nnc(C(F)F)o2)cc1 [Example I-002] has a logP of 2.75. In the case of COC(=O)c1ccc(-c2nnc(C(F)F)o2)cc1 [Example I-003], the logP is reported as 2.35. With O=C(O)c1ccc(-c2nnc(C(F)(F)F)o2)cc1 [Example I-004] the logP was 2.20. With FC(F)c1nnc(-c2ccc(-n3ccnn3)cc2)o1 [Example I-005] the logP was 1.73. COC(=O)c1ccc(-c2nnc(C(F)(F)F)o2)cc1 [Example I-006] showed a logP of 2.97. Compound FC(F)c1nnc(-c2ccc(-c3ccccc3)cc2)o1 [Example I-007] has a logP of 3.57. In the case of O=C(O)c1ccc(-c2nnc(C(F)(F)F)s2)cc1 [Example I-008], the logP is reported as 2.41.

Same assay, conditions: reversed phase HPLC column; Method A: LC-UV, acidic range, 0.1% formic acid in water and acetonitrile; read-out: Log P
For NNC(=O)c1cnc(NC2(c3ccccc3)CCC2)nc1 [2-[(1-phenylcyclobutyl)amino]pyrimidine-5-carbohydrazide], the chromatographic logP was 1.63.

Same assay, conditions: reversed phase HPLC column; log P determined according to method [a] (HPLC on reversed phase columns); read-out: logP
In the case of CC(Nc1ncc(-c2nnc(C(F)F)o2)cn1)c1ccccc1F (racemic) [I.124, 5-[5-(difluoromethyl)-1,3,4-oxadiazol-2-yl]-N-[(1RS)-1-(2-fluorophenyl)ethyl]pyrimidin-2-amine], the chromatographic logP is reported as 2.89. For CCCC(Nc1ncc(-c2nnc(C(F)F)o2)cn1)c1ccccc1 (racemic) [I.140, 5-[5-(difluoromethyl)-1,3,4-oxadiazol-2-yl]-N-[(1RS)-1-phenylbutyl]pyrimidin-2-amine], the chromatographic logP was 3.54. Work on CC(Nc1ncc(-c2nnc(C(F)F)o2)cn1)c1c(F)cccc1F (racemic) [I.151, 5-[5-(difluoromethyl)-1,3,4-oxadiazol-2-yl]-N-[(1RS)-1-(2,6-difluorophenyl)ethyl]pyrimidin-2-amine] yielded a chromatographic logP of 3.1.

Same assay, conditions: reversed phase HPLC column; method [a], HPLC on reversed phase columns; read-out: logP
Work on CON(c1ncc(-c2nnc(C(F)F)o2)cn1)C(C)c1cccc(C(F)(F)F)c1 (racemic) [I.184, N-{5-[5-(difluoromethyl)-1,3,4-oxadiazol-2-yl]pyrimidin-2-yl}-O-methyl-N-{(1RS)-1-[3-(trifluoromethyl)phenyl]ethyl}hydroxylamine] yielded a chromatographic logP of 3.94. With CC(Nc1ncc(-c2nnc(C(F)F)o2)cn1)C1(C)CC1 (racemic) [I.186, 5-[5-(difluoromethyl)-1,3,4-oxadiazol-2-yl]-N-[(1RS)-1-(1-methylcyclopropyl)ethyl]pyrimidin-2-amine] the chromatographic logP was 2.91. For CC(Nc1ncc(-c2nnc(C(F)F)o2)cn1)c1cccnc1 (racemic) [I.188, 5-[5-(difluoromethyl)-1,3,4-oxadiazol-2-yl]-N-[(1RS)-1-(pyridin-3-yl)ethyl]pyrimidin-2-amine], the chromatographic logP was 0.74. CC(Nc1ncc(-c2nnc(C(F)F)o2)cn1)c1ccccn1 (racemic) [I.189, 5-[5-(difluoromethyl)-1,3,4-oxadiazol-2-yl]-N-[(1RS)-1-(pyridin-2-yl)ethyl]pyrimidin-2-amine] showed a chromatographic logP of 1. Compound CC(Nc1ncc(-c2nnc(C(F)F)o2)cn1)c1ccncc1 (racemic) [I.190, 5-[5-(difluoromethyl)-1,3,4-oxadiazol-2-yl]-N-[(1RS)-1-(pyridin-4-yl)ethyl]pyrimidin-2-amine] has a chromatographic logP of 0.65. Compound CC(Nc1ncc(-c2nnc(C(F)F)o2)cn1)c1ncccn1 (racemic) [I.191, 5-[5-(difluoromethyl)-1,3,4-oxadiazol-2-yl]-N-[(1RS)-1-(pyrimidin-2-yl)ethyl]pyrimidin-2-amine] has a chromatographic logP of 1.49. Work on CC(Nc1ncc(-c2nnc(C(F)F)o2)cn1)c1cccs1 (racemic) [I.192, 5-[5-(difluoromethyl)-1,3,4-oxadiazol-2-yl]-N-[(1RS)-1-(2-thienyl)ethyl]pyrimidin-2-amine] yielded a chromatographic logP of 2.7. CC(Nc1ncc(-c2nnc(C(F)F)o2)cn1)C1CCCCC1 (racemic) [I.193, N-[(1RS)-1-cyclohexylethyl]-5-[5-(difluoromethyl)-1,3,4-oxadiazol-2-yl]pyrimidin-2-amine] showed a chromatographic logP of 3.74. Compound CC(Nc1ncc(-c2nnc(C(F)F)o2)cn1)c1cscn1 (racemic) [I.194, 5-[5-(difluoromethyl)-1,3,4-oxadiazol-2-yl]-N-[(1RS)-1-(1,3-thiazol-4-yl)ethyl]pyrimidin-2-amine] has a chromatographic logP of 1.8. In the case of Fc1ccc([C@H]2C[C@H]2Nc2ncc(-c3nnc(C(F)F)o3)cn2)cc1 (racemic) [I.206, 5-[5-(difluoromethyl)-1,3,4-oxadiazol-2-yl]-N-[rac-(1R,2R)-2-(4-fluorophenyl)cyclopropyl]pyrimidin-2-amine], the chromatographic logP is reported as 2.97. Work on COc1ccc(C(C)Nc2ncc(-c3nnc(C(F)F)o3)cn2)cc1 (racemic) [I.207, 5-[5-(difluoromethyl)-1,3,4-oxadiazol-2-yl]-N-[(1RS)-1-(4-methoxyphenyl)ethyl]pyrimidin-2-amine] yielded a chromatographic logP of 2.75. For COc1ccccc1C(C)Nc1ncc(-c2nnc(C(F)F)o2)cn1 (racemic) [I.209, 5-[5-(difluoromethyl)-1,3,4-oxadiazol-2-yl]-N-[(1RS)-1-(2-methoxyphenyl)ethyl]pyrimidin-2-amine], the chromatographic logP was 2.95. In the case of CC(Cc1ccc(F)cc1)Nc1ncc(-c2nnc(C(F)F)o2)cn1 (racemic) [I.210, 5-[5-(difluoromethyl)-1,3,4-oxadiazol-2-yl]-N-[(2RS)-1-(4-fluorophenyl)propan-2-yl]pyrimidin-2-amine], the chromatographic logP is reported as 3.12. For CC(CNc1ncc(-c2nnc(C(F)F)o2)cn1)c1ccc(F)cc1 (racemic) [I.211, 5-[5-(difluoromethyl)-1,3,4-oxadiazol-2-yl]-N-[(2RS)-2-(4-fluorophenyl)propyl]pyrimidin-2-amine], the chromatographic logP was 3.13. CC(Nc1ncc(-c2nnc(C(F)F)o2)cn1)c1cccc(Cl)c1 (racemic) [I.213, N-[(1RS)-1-(3-chlorophenyl)ethyl]-5-[5-(difluoromethyl)-1,3,4-oxadiazol-2-yl]pyrimidin-2-amine] showed a chromatographic logP of 3.2. CC(Nc1ncc(-c2nnc(C(F)F)o2)cn1)c1ccc(F)cc1F (racemic) [I.215, 5-[5-(difluoromethyl)-1,3,4-oxadiazol-2-yl]-N-[(1RS)-1-(2,4-difluorophenyl)ethyl]pyrimidin-2-amine] gave a chromatographic logP of 3.01. In the case of FC(F)c1nnc(-c2cnc(NC3CCCC3c3ccccc3)nc2)o1 (racemic) [I.217, 5-[5-(difluoromethyl)-1,3,4-oxadiazol-2-yl]-N-[(1RS)-2-phenylcyclopentyl]pyrimidin-2-amine], the chromatographic logP is reported as 3.44. With CCC(Nc1ncc(-c2nnc(C(F)F)o2)cn1)c1ccc(Cl)cc1 (racemic) [I.230, N-[(1RS)-1-(4-chlorophenyl)propyl]-5-[5-(difluoromethyl)-1,3,4-oxadiazol-2-yl]pyrimidin-2-amine] the chromatographic logP was 3.58. For CC(Nc1ncc(-c2nnc(C(F)F)o2)cn1)c1ccc2ccccc2c1 (racemic) [I.232, 5-[5-(difluoromethyl)-1,3,4-oxadiazol-2-yl]-N-[(1RS)-1-(2-naphthyl)ethyl]pyrimidin-2-amine], the chromatographic logP was 3.45. For CC(Nc1ncc(-c2nnc(C(F)F)o2)cn1)c1ccc2ccccc2n1 (racemic) [I.233, 5-[5-(difluoromethyl)-1,3,4-oxadiazol-2-yl]-N-[(1RS)-1-(quinolin-2-yl)ethyl]pyrimidin-2-amine], the chromatographic logP was 2.04. Cc1ccc(C(C)(CO)Nc2ncc(-c3nnc(C(F)F)o3)cn2)cc1C (racemic) [I.235, (2RS)-2-({5-[5-(difluoromethyl)-1,3,4-oxadiazol-2-yl]pyrimidin-2-yl}amino)-2-(3,4-dimethylphenyl)propan-1-ol] gave a chromatographic logP of 2.68. CC(Nc1ncc(-c2nnc(C(F)F)o2)cn1)c1cccc(C(F)(F)F)c1 (racemic) [I.239, 5-[5-(difluoromethyl)-1,3,4-oxadiazol-2-yl]-N-{(1RS)-1-[3-(trifluoromethyl)phenyl]ethyl}pyrimidin-2-amine] gave a chromatographic logP of 3.37. Compound CC(Nc1ncc(-c2nnc(C(F)F)o2)cn1)c1ccccc1C(F)(F)F (racemic) [I.240, 5-[5-(difluoromethyl)-1,3,4-oxadiazol-2-yl]-N-{(1RS)-1-[2-(trifluoromethyl)phenyl]ethyl}pyrimidin-2-amine] has a chromatographic logP of 3.42. Compound FC(F)c1nnc(-c2cnc(NC(Cc3ccccc3)c3ccccc3)nc2)o1 (racemic) [I.245, 5-[5-(difluoromethyl)-1,3,4-oxadiazol-2-yl]-N-[(1RS)-1,2-diphenylethyl]pyrimidin-2-amine] has a chromatographic logP of 3.68. Work on CC(Nc1ncc(-c2nnc(C(F)F)o2)cn1)c1cccc(OC(F)(F)F)c1 (racemic) [I.257, 5-[5-(difluoromethyl)-1,3,4-oxadiazol-2-yl]-N-{(1RS)-1-[3-(trifluoromethoxy)phenyl]ethyl}pyrimidin-2-amine] yielded a chromatographic logP of 3.53. CCC(Nc1ncc(-c2nnc(C(F)F)o2)cn1)c1ccccc1Br (racemic) [I.260, N-[(1RS)-1-(2-bromophenyl)propyl]-5-[5-(difluoromethyl)-1,3,4-oxadiazol-2-yl]pyrimidin-2-amine] showed a chromatographic logP of 3.64.
